Like-named read-outs stand apart in the source and are kept apart here.
What was measured:
Drosophila melanogaster [1] = assay: Genotoxicity, Drosophila wing spot test (SMART); conditions: […] H2O2 alone
Method: (§2) Genotoxicity assays were carried out following the wing spot test standard procedure [20]. Briefly, transheterozygous larvae for mwh and flr ^3 genes were obtained by crossing four-day-old virgin flr ^3 females with mwh males in a 2 : 1 ratio. Four days after fertilization, females were allowed to lay eggs in fresh yeast medium (25 g yeast and 4 mL sterile distilled water) for 8 h in order to obtain synchronised larvae. After 72 h, larvae were collected, washed with distilled water, and clustered in groups of 100 individuals. […] Adult flies were collected and stored in 70% ethanol until the wings were removed and mounted on slides using Faure's solution. Mutant spots were assessed in both dorsal and ventral surfaces of the wings in a bright light microscope at 400x magnification. The frequencies of each type of mutant clone per wing (single, large, or twin spot) were compared to the concurrent negative control and analysed applying the binomial Kastenbaum and Bowman Test [36]. Antigenotoxicity tests were performed following the method described by Anter et al. [37]. […] Single and twin spots per wing were also recorded and compared with the concurrent positive control as described before. The recombination percentage was calculated following Valadares et al. [38] procedure and the inhibition percentages (IP) for the combined treatments were calculated from the control-corrected frequencies of clone formation per 10^5 cells, according to Abraham [39]: IP = [(genotoxin alone − combined treatment)/genotoxin alone] × 100.

D. melanogaster larvae [2] = assay: Antitoxicity assay (combined treatment with […] H2O2)
Method: (§3) Negative (H2O) and positive (0.15 M H2O2) toxicant concurrent controls were also assayed. Test groups consisted of larvae fed with Drosophila Instant Medium (Formula 4–24, Carolina Biological Supply, Burlington, NC) supplemented with the beverage concentrations tested. Emerging adults of all groups were counted and toxicity was determined as the percentage of hatched individuals in each treatment compared with the negative control. Antitoxicity was assessed using the same procedure and experimental concentrations as in toxicity assays, but in combined treatments with 0.15 M H2O2 and comparing the percentage of emerging adults with the positive toxicant control [34]. […] Negative control values were considered as those expected in Chi-square formula used in toxicity assay and positive control values in antitoxicity assays [35]. The same concentrations of toxicity and antitoxicity assays within the same substance were also compared.

Drosophila melanogaster [3] = assay: Chronic treatments: lifespan and healthspan assays; type: in vivo; conditions: for Healthspan difference (%) / Mean lifespan difference (%): versus concurrent water control
Method: We also tested the same compounds and concentrations as in the toxicity/antitoxicity experiments. Lifespan assays were carried out at 25°C according to the procedure described by Fernandez-Bedmar et al.. Briefly, synchronised 72 ± 12-hour-old transheterozygous larvae were washed in distilled water, collected, and transferred in groups of 100 individuals into test vials containing 0.85 g Drosophila Instant Medium and 4 mL of the different concentrations of the compounds to be assayed. Emerged adults from pupae were collected under CO2 anaesthesia and placed in groups of 25 individuals of the same sex into sterile vials containing 0.21 g Drosophila Instant Medium and 1 mL of different concentrations of the compounds to be tested. Flies were chronically treated during all their life. The number of survivors was determined twice a week.

[4] = Cytotoxicity assay (trypan blue exclusion); type: cell-based, human; conditions: human, HL-60 cells; HL-60, 72 h; read-out: IC50 (cytotoxicity), not reached at highest tested concentration
Method: (§1) Promyelocytic human leukaemia (HL-60) cells were grown in RPMI-1640 medium (Sigma, R5886) supplemented with heat-inactivated foetal bovine serum (Linus, S01805), L-glutamine 200 mM (Sigma, G7513), and 1x antibiotic-antimycotic solution (Sigma, A5955). Cells were incubated at 37°C in a humidified atmosphere of 5% CO2. Cultures were plated at 2.5 × 10^4 cells/mL density in 10 mL culture bottles and passed every 2 days. The effect of the assayed compounds on cell viability was determined by the trypan blue exclusion test according to our standard procedures. […] After culture, cells were stained with a 1 : 1 volume ratio of trypan blue dye (Sigma, T8154) and counted in a Neubauer chamber at 100x magnification. The survival percentage of each treatment compared with the control was recorded in three independent replicates.

HL-60 cells [5] = assay: Cytotoxicity assay (trypan blue exclusion); type: cell-based, human; conditions: Homo sapiens; HL-60, highest tested concentration 20.4 mM; read-out: Inhibition of cell growth
Method: as §1

HL-60 cells [6] = assay: DNA fragmentation status (internucleosomal ladder); type: cell-based, human; conditions: HL-60, 5 h, any CAF treatment
Method: The ability of our compounds to induce DNA fragmentation was determined as described by Anter et al.. […] After treatment, genomic DNA was extracted using a commercial kit (Blood Genomic DNA Extraction Mini Spin Kit, […] Biotech, Cordoba, Spain). Subsequently, DNA was incubated overnight with RNase at 37°C and quantified in a spectrophotometer (Nanodrop® ND-1000). Finally, 1200 ng DNA was electrophoresed in a 2% agarose gel for 120 min at 50 V, stained with ethidium bromide, and visualised under UV light. The apoptosis process is recognised by the appearance of internucleosomal DNA fragments that are multiple of 200 base pairs.

LINE-1 = assay: Methylation status of HL-60 cells (qMSP); type: cell-based, human; conditions: HL-60, 5 h, 0.51 mM
Method: Then, DNA was extracted similarly to previously described DNA fragmentation assay. After that, the DNA was converted with bisulphite (EZ DNA Methylation-Gold™ Kit). Bisulphite-modified DNA was used for fluorescence-based real-time quantitative Methylation-Specific PCR (qMSP) using 5 μM of each forward and reverse primer (Isogen Life Science BV), 2 μL of iTaq™ Universal SYBR® Green Supermix (Bio-Rad, it contains antibody-mediated hot-start iTaq DNA polymerase, dNTPs, MgCl2, SYBR Green I Dye, enhancers, stabilizers, and a blend of passive reference dyes including ROX and fluorescein) and 25 ng of bisulphite converted genomic DNA. PCR conditions included initial denaturalisation at 95°C for 3 minutes and amplification which consisted of 45 cycles at 95°C for 10 seconds, 60°C for 15 seconds, and 72°C for 15 seconds, taking picture at the end of each elongation cycle. After that, melting curve was determined increasing 0.5°C each […] from 60°C to 95°C and taking pictures. QMSP was carried out in 48-well plates in MiniOpticon Real-Time PCR System (MJ Mini Personal Thermal Cycler, Bio-Rad) and were analysed by Bio-Rad CFX Manager 3.1 software. […] Alu-C4 and the target repetitive elements Alu M1, LINE-1, and Sat-α were obtained from Isogen Life Science and their sequences are shown in Table 1. Each sample was analysed in triplicate. The results of each CT were obtained from each qMSP. […]

D. melanogaster larvae [7] = test system: D. melanogaster larvae
Method: as §3

[8] = test system: human breast cancer cells; parameters: method as in PMID 25691730; conditions: cited from earlier work
HL-60 = test system: HL-60; parameters: method as in PMID 1311329; conditions: at 5 mM; cited from earlier work
Drosophila melanogaster [9] = assay: Antigenotoxicity, Drosophila wing spot test (SMART), combined with H2O2; conditions: combined treatment with […] H2O2, mwh/flr3, 0.51 mM
Method: as §2

[10] = mwh/TM3 balancers-heterozygous wings

With OO [H2O2, hydrogen peroxide] the “Clones per wings: large simple spots (>2 cells) m = 5” value (“Clones per wings: large simple spots” below) (Drosophila melanogaster [1]; [10]) was 0.013 (1) clones/wing, the “Clones per wings: small single spots (1-2 cells) m = 2” value (from here on “Clones per wings: small single spots”) (Drosophila melanogaster [1]; [10]) was 0.188 (15) clones/wing and the “Frequency of clone formation per 10^5 cells, observed” value (“Frequency … per 10^5 cells, observed” for short) (Drosophila melanogaster [1]; mwh/TM3 wings) was 0.819 per 10^5 cells. For the same compound, the “Clones per wings: large simple spots” value (Drosophila melanogaster [1]; mwh/flr3 wings) was 0.088 (7) clones/wing, the “Clones per wings: small single spots” value (Drosophila melanogaster [1]; mwh/flr3 wings) was 0.313 (25) clones/wing and the “Clones per wings: total spots m = 2” value (Drosophila melanogaster [1]; mwh/flr3 wings) was 0.438 clones/wing. For the same compound, the “Clones per wings: twin spots m = 5” value (Drosophila melanogaster [1]; mwh/flr3 wings) was 0.038 (3) clones/wing, the “Frequency of clone formation per 10^5 cells, control corrected” value (Drosophila melanogaster [1]; mwh/flr3 wings) was 0.717 per 10^5 cells and the “Frequency … per 10^5 cells, observed” value (Drosophila melanogaster [1]; mwh/flr3 wings) was 1.795 per 10^5 cells. For the same compound, the “Statistical diagnosis of total spots” value (Drosophila melanogaster [1]; mwh/flr3 wings, versus negative control) was “+” and the “Survival (%) positive toxicant control” value (D. melanogaster larvae [2]; […] H2O2 alone) was 46.66%.

In the case of Cn1c(=O)c2c(ncn2C)n(C)c1=O [CAF, 1,3,7-trimethylpurine-2,6-dione], the “Healthspan (80th percentile) (days)” value (Drosophila melanogaster [3]; 0.004 mM, mean ± SE) is reported as 47 ± 2.65^∗∗ days, the “Mean lifespan” value (Drosophila melanogaster [3]; 0.004 mM, mean ± SE) is reported as 62.88 ± 1.7 days and the “Healthspan difference (%)” value (Drosophila melanogaster [3]; 0.004 mM) is reported as 55.73%. The “Mean lifespan difference (%)” value (Drosophila melanogaster [3]; 0.004 mM) was 6.87%, the “Mean lifespan (days)” value (Drosophila melanogaster [3]; 0.032 mM, mean ± SE) was 68.86 ± 2.38^∗∗ days and the “Healthspan difference (%)” value (Drosophila melanogaster [3]; 0.032 mM) was 40.32%. The “Mean lifespan difference (%)” value (Drosophila melanogaster [3]; 0.032 mM) was 17.02%, the “Mean lifespan (days)” value (Drosophila melanogaster [3]; 0.127 mM, mean ± SE) was 70.91 ± 2.99^∗∗∗ days and the “Healthspan difference (%)” value (Drosophila melanogaster [3]; 0.127 mM) was 22.23%. For the same compound, the “Mean lifespan difference (%)” value (Drosophila melanogaster [3]; 0.127 mM) was 20.52%, the “Mean lifespan” value (Drosophila melanogaster [3]; 0.51 mM, mean ± SE) was 61.14 ± 2.07 days and the “Healthspan difference (%)” value (Drosophila melanogaster [3]; 0.51 mM) was 26.41%. The “Mean lifespan difference (%)” value (Drosophila melanogaster [3]; 0.51 mM) was 3.91%, the “Drosophila lifespan increase, on average” value (Drosophila melanogaster [3]; on average) was “more than 15%” and the IC50 at 72 h [4] was greater than 20.4 mM. The inhibition at 20400 µM (HL-60 cells [5]) was roughly 40%, the “Ladder pattern of fragmented internucleosomal DNA” value (HL-60 cells [6]) was “not observed” and the Methylation status (LINE-1) was “decrease of methylation status”. For the same compound, the “Survival (%) simple treatment” value (D. melanogaster larvae [7]; 0.004 mM) was 100%, the “Survival (%) simple treatment” value (D. melanogaster larvae [7]; 0.032 mM) was 100% and the “Survival (%) simple treatment” value (D. melanogaster larvae [7]; 0.127 mM) was 100%. For the same compound, the “Survival (%) simple treatment” value (D. melanogaster larvae [7]; 0.51 mM) was 100%, the IC50 [8] was roughly 5 mM and the “Growth inhibition (in words)” value (HL-60) was “inhibited HL-60 growth”. The “Survival (%) combined treatment” value (D. melanogaster larvae [2]; 0.004 mM + […] hydrogen peroxide) was 54^Δ %, the “Survival (%) combined treatment” value (D. melanogaster larvae [2]; 0.032 mM + […] hydrogen peroxide) was 51^Δ % and the “Survival (%) combined treatment” value (D. melanogaster larvae [2]; 0.127 mM + […] hydrogen peroxide) was 54.66^Δ %. The “Survival (%) combined treatment” value (D. melanogaster larvae [2]; 0.51 mM + […] hydrogen peroxide) was 51.33^Δ %, the “Clones per wings: large simple spots” value (Drosophila melanogaster [9]) was 0.125 (10) clones/wing and the “Clones per wings: small single spots” value (Drosophila melanogaster [9]) was 0.325 (26) clones/wing. For the same compound, the “Clones per wings: total spots m = 2” value (Drosophila melanogaster [9]) was 0.45 clones/wing, the “Clones per wings: twin spots m = 5” value (Drosophila melanogaster [9]) was 0 clones/wing and the “Frequency of clone formation per 10^5 cells, control corrected” value (Drosophila melanogaster [9]) was 0.766 per 10^5 cells. For the same compound, the “Frequency … per 10^5 cells, observed” value (Drosophila melanogaster [9]) was 1.844 per 10^5 cells.
